Experimental findings from patent US11890288B2, “Sulfonamide or sulfinamide compound having effect of inducing BRD4 protein degradation and pharmaceutical use thereof” (MITSUBISHI TANABE PHARMA CORPORATION, priority 2020, dated 2024) are described below.

In data set [1] the test system is human AR-V7 positive castration-resistant prostate cancer 22Rv1 cell. Briefly: Cytotoxic action on 22Rv1 cells (WST-8, 96 hr). The format is cell-based. The settings on record: 22Rv1, 96 hr. Here is the method:
(§1) The cytotoxic action of the compound of the present invention against human cancer cells was evaluated in vitro. In this experiment, (+)-JQ1 (Nature volume 468, pages 1067-1073 (23 Dec. 2010)) known to have an inhibitory activity on the binding of BRD4 protein and a ligand therefor was used as a positive control drug. Respective cells were suspended in 10% FBS/RPMI1640, seeded in a 96 well plate and cultured at 5% CO2, 37° C. overnight. A test compound dissolved in DMSO was diluted with 10% FBS/RPMI1640 and added and the cells were further cultured for 96 hr. After culturing, the viable cell number was measured using a cell number measurement WST-8 kit (Kishida Chemical Co., Ltd.). As a control, the measurement was performed under conditions free of the test compound. The cytotoxic activity of the compound of the present invention against human prostate cancer LNCaP cells is shown in IC50 value in Table 1. The IC50 value is a concentration of the compound showing 50% cell survival rate when the cell survival rate thereof under compound untreated condition is 100%. It was calculated from the straight line connecting the cell survival rate at two points enclosing the 50% cell survival rate and the compound concentration. […]

The subject of data set [2] is human colon cancer HCT116 cell. The data set is described as follows: Cytotoxic action on HCT116 cells (WST-8, 96 hr). In kind it is cell-based. To be noted: HCT-116, HCT116, 96 hr. The protocol:
as §1
(Tetrazolium dyes change colour on reduction, which living cells bring about.)

The test system of data set [3] is human glioma U-87 MG cell. Briefly: Cytotoxic action on U-87 MG cells (WST-8, 96 hr). In kind it is cell-based. Here is the method: as §1
Data set [4] deals with Human breast cancer MDA-MB-436 cells. The data set is described as follows: Cytotoxic action on MDA-MB-436 cells (WST-8, 96 hr). The format is cell-based. The settings on record: Homo sapiens. Here is the method: The cytotoxic action of the compound of the present invention against cancer cells that acquired resistance to conventional BRD4 protein degradation inducing agents was evaluated in vitro. In this experiment, ARV-771 (Proc Natl Acad Sci USA. volume 113, pages 7124-7129 (28 Jun. 2016)) and MZ1 (ACS Chem Biol. Volume 10, pages 1770-1777 (21 Aug. 2015)), in which a ligand for VHL and BRD4 protein inhibitor are linked, were used as a conventional BRD4 protein degradation inducing agent serving as a comparison control. Human breast cancer MDA-MB-436 cells and MDA-MB-436 cells that acquired resistance to conventional BRD4 protein degradation inducing agents (MDA-MB-436 w/o2 cells) were suspended in 10% FBS/RPMI1640, seeded in a 96 well plate and cultured at 5% CO2, 37° C. overnight. A test compound dissolved in DMSO was diluted with 10% FBS/RPMI1640 and added and the cells were further cultured for 96 hr. After culturing, the viable cell number was measured using a cell number measurement WST-8 kit (Kishida Chemical Co., Ltd.). As a control, the measurement was performed under conditions free of the test compound. The cytotoxic activity of the compound of the present invention against each cell is shown in IC50 value in Table 4. The IC50 value is a concentration of the compound showing 50% cell survival rate when the cell survival rate thereof under compound untreated condition is 100%. It was calculated from the straight line connecting the cell survival rate at two points enclosing the 50% cell survival rate and the compound concentration. In addition, the tolerance (fold) was calculated by dividing the IC50 value in MDA-MB-436 w/o2 cells by the IC50 value in MDA-MB-436 cells.

The test system of data set [5] is human acute myeloid leukemia MV-4-11 cell transplanted mouse. Briefly: Antitumor effect in MV-4-11 cell transplanted mouse (tail vein, days 1, 5, 9, 13). To be noted: tumor weight on day 15. The format is in vivo. The protocol:
The in vivo antitumor effect of the compound of the present invention was studied using human acute myeloid leukemia MV-4-11 cell transplanted mouse. MV-4-11 cells were subcutaneously transplanted into the inguinal region of male, 6-week-old BALB/c nude mouse (5×10^6 cells/mouse). The compound of the present invention was administered into the tail vein on days 1, 5, 9, 13 from the time point when the assumed tumor volume determined from ½ab^2 (a is major axis and b is minor axis of tumor) reached about 100 mm^3 (day 1). The control group was administered with a solvent, 20% hydroxypropyl-β-cyclodextrin solution. On day 15, the tumor was isolated, the weight was measured, and the tumor growth inhibitory rate IR (%) was calculated by the following formula. tumor growth inhibitory rate IR (%)={1−(average tumor weight of administration group/average tumor weight of nonadministration control group)}×100(%)

The nature of data set [6]: Maximum tolerated dose in rats (single tail vein administration). To be noted: rat, in vivo, intravenous, male CD (SD) rats. The protocol:
The maximum tolerated dose (MTD) in rats was determined for the compound of the present invention.

pIC50: −log10 of the molar value. Marks after values point to notes of the source that are not given here.

As usually defined, the pIC50 is the IC50 on a negative log10 scale, so that one unit is a factor of ten. Read a high pIC50 as a low IC50. The term MTD denotes the largest dose that counted as tolerated. Read a high MTD as better tolerability. With `COC(=O)C[C@@H]1N=C(c2ccc(-c3ccc(C(=O)NCc4ccc(S(=O)(=O)Nc5ccc(C)c6c(C#N)c[nH]c56)cc4)cc3)cc2)c2c(sc(C)c2C)-n2c(C)nnc21` [Example 1, methyl [(6S)-4-{4′-[({4-[(3-cyano-4-methyl-1H-indol-7-yl)sulfamoyl]phenyl}methyl)carbamoyl][1,1′-biphenyl]-4-yl}-2,3,9-trimethyl-6H-thieno[3,2-f][1,2,4]triazolo[4,3-a][1,4]diazepin-6-yl]acetate], the pIC50 in data set [1] was 9.15; in data set [2], 8.06; in data set [3], 8.22; in data set [4], 9.41. For the same compound, the “tumor growth inhibitory rate” value is 68.4* % in data set [5] (1 mg/kg/day) and 95.3* % in data set [5] (3 mg/kg/day). In data set [6], this compound gave an MTD of more than 10 mg/kg.
